Source: US5041460A, “Heter-aliphatic carboxamides” (ICI Americas Inc., priority 1989, dated 1991)

Molecular target: T1, LTD4 /E4 receptors (Cavia porcellus, UniProt Q2NNR5)
T1 construct: membrane fractions, containing the LTD4 /E4 receptors, are prepared from guinea-pig lung parenchyma; from tissue; host or cells: guinea-pig lung parenchyma membrane fractions
T1 sequence (Q2NNR5 1-340): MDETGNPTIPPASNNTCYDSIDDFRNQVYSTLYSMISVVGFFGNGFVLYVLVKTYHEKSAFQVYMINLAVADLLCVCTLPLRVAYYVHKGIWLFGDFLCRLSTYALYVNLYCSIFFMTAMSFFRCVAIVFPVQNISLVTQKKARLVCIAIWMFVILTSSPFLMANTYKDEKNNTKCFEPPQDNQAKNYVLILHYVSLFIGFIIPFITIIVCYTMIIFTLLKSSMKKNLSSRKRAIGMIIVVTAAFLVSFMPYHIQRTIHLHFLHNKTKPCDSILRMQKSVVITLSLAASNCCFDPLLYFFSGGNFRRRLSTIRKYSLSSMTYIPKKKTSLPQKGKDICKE
Experiment: receptor-ligand binding assay, 3H-LTD4 on guinea-pig lung parenchyma membrane fractions
Conditions: 1 nM 3H-LTD4, 30 minutes at 22° C.; Ki calculated from IC50 by the Cheng-Prusoff equation
Description: According to this procedure, membrane fractions, containing the LTD4 /E4 receptors, are prepared from guinea-pig lung parenchyma and incubated for 30 minutes at 22° C. with 1 nM ^3 H-LTD4 in the absence or presence of tested antagonist. Specific binding, determined under conditions that prevent enzymatic metabolism of ^3 H-LTD4, is the net result of total ^3 H-LTD4 binding minus nonspecific binding determined in the presence of […] excess unlabelled LTD4. Each assay is done in duplicate and results (Ki values) are typically a mean of several such determinations in individual receptor batches.
The % inhibition by a tested antagonist, relative to control binding (vehicle alone), is expressed as a […] of log[antagonist] concentration (in molar units) and the half-maximal inhibition (IC50) determined by computerized non-linear least-square analysis. The binding constant (Ki) is then calculated from IC50 by the Cheng-Prusoff equation: [formula] where [L] is ^3 H-LTD4 concentration and Kd is the affinity constant of LTD4 to this receptor, determined separately for each batch. (Biochem. Pharmacol. 22: 3099-3108, 1973).

With COc1cc(C(=O)NS(=O)(=O)c2ccccc2C)ccc1Cc1cn(C)c2ccc(CCNC(=O)N(C)C)cc12 [Example 4, 4-[5-[2-(N',N'-Dimethylureido)ethyl]-1-methylindol-3-ylmethyl]-3-methoxy-N-(2-methylphenylsulfonyl)benzamide] the Ki was 1 nM.
